Experimental data reported in US11419921B2, “Methods of treating neurological disorders” (EnClear Therapies, Inc., priority 2018, dated 2022).

Tested on: (GR)10
Test: Cleavage of (GR)10 by enzymes in solution (PBS with CaCl2 and MgCl2), LC/MS of GR repeats
Format: biochemical
Settings: for (GR)1 concentration / (GR)2 concentration / (GR)4 concentration / (GR)6 concentration / (GR)8 concentration / (GR)10 concentration: (GR)10 50 μM; for (GR)1 / (GR)2 / (GR)3 / (GR)4 / (GR)5 / (GR)6 / (GR)8 / (GR)10: PBS, normalized
Description: • (GR)10 dipeptide (also (GR)8, (GR)6, (GR)4, (GR)2) were synthetized by solid-phase synthesis by CanPeptide; All peptides are uncapped and supplied lyophilized with TFA as counter ions. Purity was always above 95%. • Buffer: PBS buffer containing CaCl2 and MgCl2. • Stock solution of enzyme (e.g., 10 mg/mL) (prepared per manufacturer instructions) in PBS. Activators added as necessary. • Working solution of protein of the desired concentration (e.g., 100 μg/mL) prepared immediately before use by diluting the stock solution (e.g., 5 μL of 10 mg/mL stock solution) in PBS buffer (e.g., in 495 μL of PBS). Exemplary Procedure Using 50 μM Concentrations of (GR)10
25 μL of a 100 μM solution of (GR)10 was added to each well of a 96-well plate. 25 μL of a solution of enzyme (two times the desired final enzyme concentration) was added, and the plates were incubated at room temperature. At the specified time points (5 minutes, 10 minutes, 30 minutes, 60 minutes, and 180 minutes) 2.5 μL of a 10% TFA solution were added to stop the reaction. For the time 0 min well, the TFA was added to the well before addition of the enzyme. After last time point, all samples were further diluted with 150 μL of dilution solution. The quenched reaction mixtures were analyzed by LC/MS to determine the concentration of GR repeats of different lengths.
The chromatography and mass spectrometry conditions utilized are shown in Table 2 and Table 3, respectively.

Substance: Elastase: protease that cleaves at the carboxyl side of small hydrophobic amino acids; in Table 22 also immobilized on agarose resin
- (GR)1 concentration (enzyme 2.5 μg/mL, 0 min): BLQ
- (GR)2 concentration (enzyme 2.5 μg/mL, 0 min): BLQ
- (GR)4 concentration (enzyme 2.5 μg/mL, 0 min): BLQ
- (GR)6 concentration (enzyme 2.5 μg/mL, 0 min): BLQ
- (GR)8 concentration (enzyme 2.5 μg/mL, 0 min): BLQ
- (GR)10 concentration (enzyme 2.5 μg/mL, 0 min): 53.8 µM
- (GR)1 concentration (enzyme 2.5 μg/mL, 5 min): 0.2 µM
- (GR)2 concentration (enzyme 2.5 μg/mL, 5 min): 0.2 µM
- (GR)4 concentration (enzyme 2.5 μg/mL, 5 min): BLQ
- (GR)6 concentration (enzyme 2.5 μg/mL, 5 min): BLQ
- (GR)8 concentration (enzyme 2.5 μg/mL, 5 min): 0.3 µM
- (GR)10 concentration (enzyme 2.5 μg/mL, 5 min): 52.6 µM
- (GR)1 concentration (enzyme 2.5 μg/mL, 10 min): 0.3 µM
- (GR)2 concentration (enzyme 2.5 μg/mL, 10 min): 0.2 µM
- (GR)4 concentration (enzyme 2.5 μg/mL, 10 min): 0.2 µM
- (GR)6 concentration (enzyme 2.5 μg/mL, 10 min): BLQ
- (GR)8 concentration (enzyme 2.5 μg/mL, 10 min): 0.6 µM
- (GR)10 concentration (enzyme 2.5 μg/mL, 10 min): 52.5 µM
- (GR)1 concentration (enzyme 2.5 μg/mL, 30 min): 1.3 µM
- (GR)2 concentration (enzyme 2.5 μg/mL, 30 min): 0.8 µM
- (GR)4 concentration (enzyme 2.5 μg/mL, 30 min): 0.7 µM
- (GR)6 concentration (enzyme 2.5 μg/mL, 30 min): 0.7 µM
- (GR)8 concentration (enzyme 2.5 μg/mL, 30 min): 0.6 µM
- (GR)10 concentration (enzyme 2.5 μg/mL, 30 min): 43.6 µM
- (GR)1 concentration (enzyme 2.5 μg/mL, 60 min): 2.3 µM
- (GR)2 concentration (enzyme 2.5 μg/mL, 60 min): 1.4 µM
- (GR)4 concentration (enzyme 2.5 μg/mL, 60 min): 1.4 µM
- (GR)6 concentration (enzyme 2.5 μg/mL, 60 min): 1.0 µM
- (GR)8 concentration (enzyme 2.5 μg/mL, 60 min): 1.6 µM
- (GR)10 concentration (enzyme 2.5 μg/mL, 60 min): 35.3 µM
- (GR)1 concentration (enzyme 2.5 μg/mL, 120 min): 4.3 µM
- (GR)2 concentration (enzyme 2.5 μg/mL, 120 min): 2.1 µM
- (GR)4 concentration (enzyme 2.5 μg/mL, 120 min): 2.3 µM
- (GR)6 concentration (enzyme 2.5 μg/mL, 120 min): 1.5 µM
- (GR)8 concentration (enzyme 2.5 μg/mL, 120 min): 2.5 µM
- (GR)10 concentration (enzyme 2.5 μg/mL, 120 min): 24.9 µM
- (GR)1 concentration (enzyme 10 μg/mL, 0 min): BLQ
- (GR)2 concentration (enzyme 10 μg/mL, 0 min): BLQ
- (GR)4 concentration (enzyme 10 μg/mL, 0 min): BLQ
- (GR)6 concentration (enzyme 10 μg/mL, 0 min): BLQ
- (GR)8 concentration (enzyme 10 μg/mL, 0 min): BLQ
- (GR)10 concentration (enzyme 10 μg/mL, 0 min): 41.6 µM
- (GR)1 concentration (enzyme 10 μg/mL, 5 min): 0.8 µM
- (GR)2 concentration (enzyme 10 μg/mL, 5 min): 0.5 µM
- (GR)4 concentration (enzyme 10 μg/mL, 5 min): 0.5 µM
- (GR)6 concentration (enzyme 10 μg/mL, 5 min): 0.4 µM
- (GR)8 concentration (enzyme 10 μg/mL, 5 min): 0.9 µM
- (GR)10 concentration (enzyme 10 μg/mL, 5 min): 50.5 µM
- (GR)1 concentration (enzyme 10 μg/mL, 10 min): 1.4 µM
- (GR)2 concentration (enzyme 10 μg/mL, 10 min): 0.8 µM
- (GR)4 concentration (enzyme 10 μg/mL, 10 min): 0.7 µM
- (GR)6 concentration (enzyme 10 μg/mL, 10 min): 0.8 µM
- (GR)8 concentration (enzyme 10 μg/mL, 10 min): 0.9 µM
- (GR)10 concentration (enzyme 10 μg/mL, 10 min): 37.8 µM
- (GR)1 concentration (enzyme 10 μg/mL, 30 min): 5.1 µM
- (GR)2 concentration (enzyme 10 μg/mL, 30 min): 2.5 µM
- (GR)4 concentration (enzyme 10 μg/mL, 30 min): 2.2 µM
- (GR)6 concentration (enzyme 10 μg/mL, 30 min): 1.6 µM
- (GR)8 concentration (enzyme 10 μg/mL, 30 min): 2.8 µM
- (GR)10 concentration (enzyme 10 μg/mL, 30 min): 21.1 µM
- (GR)1 concentration (enzyme 10 μg/mL, 60 min): 8.3 µM
- (GR)2 concentration (enzyme 10 μg/mL, 60 min): 3.7 µM
- (GR)4 concentration (enzyme 10 μg/mL, 60 min): 2.8 µM
- (GR)6 concentration (enzyme 10 μg/mL, 60 min): 2.2 µM
- (GR)8 concentration (enzyme 10 μg/mL, 60 min): 3.3 µM
- (GR)10 concentration (enzyme 10 μg/mL, 60 min): 12.2 µM
- (GR)1 concentration (enzyme 10 μg/mL, 120 min): 15.1 µM
- (GR)2 concentration (enzyme 10 μg/mL, 120 min): 6.3 µM
- (GR)4 concentration (enzyme 10 μg/mL, 120 min): 3.2 µM
- (GR)6 concentration (enzyme 10 μg/mL, 120 min): 2.0 µM
- (GR)8 concentration (enzyme 10 μg/mL, 120 min): 1.3 µM
- (GR)10 concentration (enzyme 10 μg/mL, 120 min): 2.4 µM
- (GR)1 (in solution - 5 min reaction): 1.4 µM
- (GR)2 (in solution - 5 min reaction): 2.9 µM
- (GR)3 (in solution - 5 min reaction): 2.1 µM
- (GR)4 (in solution - 5 min reaction): 3.1 µM
- (GR)5 (in solution - 5 min reaction): 2.3 µM
- (GR)6 (in solution - 5 min reaction): 4.4 µM
- (GR)8 (in solution - 5 min reaction): 6.8 µM
- (GR)10 (in solution - 5 min reaction): 213.3 µM
- (GR)1 (in solution - 60 min reaction): 5.4 µM
- (GR)2 (in solution - 60 min reaction): 12.8 µM
- (GR)3 (in solution - 60 min reaction): 8.5 µM
- (GR)4 (in solution - 60 min reaction): 8.8 µM
- (GR)5 (in solution - 60 min reaction): 6.0 µM
- (GR)6 (in solution - 60 min reaction): 9 µM
- (GR)8 (in solution - 60 min reaction): 12.8 µM
- (GR)10 (in solution - 60 min reaction): 21.6 µM
